{"source": "patent US7094809B2", "about": "“Method of treating subject infected with Neisseria gonorrhea” (Northeastern Ohio Universities College of Medicine, priority 2000, dated 2006)", "key": {"HSV-1 [1]": {"system": "HSV-1", "experiment": "HSV-1 plaque assay, infected Vero cells, moi 1 (Example 3)", "assay_type": "cell-based", "conditions": "50 μM, data not shown", "experimental": "Cultures of African green monkey kidney cells (Vero) cells, obtained from the American Type Culture Collection, Rockville, Md. were grown to confluence in Medium 199 supplemented with 5% fetal bovine serum, 0.075% NaHCO3, and 50 μg/ml gentamycin sulfate in 25 cm^2 tissue culture flasks. Cells were infected with HSV-1 at a multiplicity of infection (moi) of one and incubated at room temperature for one hour to allow for virus attachment to and penetration of the cell. Under these conditions, approximately half of the cells are infected with virus. Thereafter, the cultures were rinsed three time with media and incubated in medium containing 50 μM or 75 μM 4, 4′-dihydroxytolan prepared in 0.2% dimethyl-sulfoxide (DMSO). Controls were treated identically, but were incubated without the dihyroxylated tolan. For purposes of comparison, HSV cell were also inoculated in the presence of 52.5 μM 4,4′-dihydroxystilbene. Due to the higher cell toxicity of the stilbene, cells were not incubated in the presence of 75 μM dihydroxystilbene.\nUpon addition of the medium to the cultures and at 24 hours time periods thereafter, i.e., 0 hours, 24 hours, 48 hours, and 72 hours after addition of the drug, cells and medium were frozen at −70° C. Samples were then thawed, sonicated and titrated on Vero cells to determine the number of plaque forming units (pfu's) of virus produced by each culture."}, "HSV-1 [2]": {"system": "HSV-1", "experiment": "HSV-1 skin scratch infection in hairless mice, topical treatment (Example 10)", "assay_type": "in vivo, SKH-1 hairless mice", "conditions": "for severity of HSV lesions: topical, three times a day for five days, versus untreated or DMSO only; for animals that perished within 11 days after infection: controls 50% died", "experimental": "Female SKH-1 hairless mice 4–5 weeks old were lightly anesthetized and a scratch approximately 2–3 mm long and 0.25 mm deep was made on the lateral dorsal aspect of the neck. The scratch was infected with 10^6 plaque forming units of HSV-1. One hour later, the infected scratch area was treated with a 5% or 10% solution of Tolan-10 in DMSO. This treatment was repeated three times a day for five days. There were at least six mice in each treatment group. Untreated mice and mice treated with DMSO only were used as controls. Beginning on day 1 and continuing for 10–11 days, the scratch site was examined daily for evidence of an HSV infection and scored according to the following schedule: • 0=no visible change on skin by scratch • 1+=papules around scratch • 2+=papules around scratch ulcerate with scab formation • 3+=ulcerative zosterform spread along peripheral nerves to flank of animal • 4+=ulcerative lesions open on flank • 5+=death/sacrifice The data was grouped according to treatment and statistically analyzed for significance."}, "Vero cells": {"system": "Vero cells", "experiment": "MTT colorimetric cell toxicity assay", "assay_type": "cell-based, African green monkey", "experimental": "Cell toxicity of the tolans 4,4′-dihydroxytolan (“Tolan-5”), 3,4′,5-trihydroxytolan (“Tolan-10”) and 4-hydroxy-4′-trifluoromethyltolan (“Tolan-11”) was determined using an MTT assay. In this assay, cells are exposed to MTT, 3-(4,5-dimethylthiazol-2-yl)-2,5-diphenyltetrazolium bromide, which is taken into the cells and reduced by mitochondrial dehydrogenase to a purple formazan, a large molecule which is unable to pass through intact cell membranes, and therefore accumulates in healthy cells. The ability of cells to reduce MTT is an indication of mitochondrial integrity and activity, which may be interpreted as a measure of viability. Solubilization of the cells results in the liberation of the product which can readily be detected spectrophotometrically.\nVarious concentrations of Tolan-5, Tolan-10 and Tolan-11 were added to 96 well tissue culture plates that had been seeded with Vero cells. The plates were then incubated at 37° C. in 5% CO2/95% air for 24, 48 and 72 hours. At the end of each time point, 50 μl of MTT (1 mg/ml) was added to the tissue culture plates which were then incubated for an additional four hours. At the end of that time, dimethyl sulfoxide (DMSO) was added to dissolve the cells and formazan, and the plates were read spectrophotometrically at 540 nm. […] Presented in Table I below are the toxicity results for Tolan-5, Tolan-10, and Tolan-11 measured at 24, 48 and 72 hours of treatment."}, "[3]": {"system": "Neisseria gonorrhea CDC 98", "experiment": "Growth inhibition on chocolate agar plates", "assay_type": "cell-based", "experimental": "(§1) Various concentrations of the trihydroxytolan Tolan-10 were incorporated into chocolate agar plates that were prepared using standard procedures. The trihydroxylated tolan was first dissolved in DMSO and medium and then added to liquid chocolate agar, which was then poured into petri plates and allowed to solidify. The highest concentration of DMSO in the agar was 0.5%. Control plates containing chocolate agar and DMSO at a final concentration of 0.5% were also prepared.\nNeisseria gonorrhea CDC 98 was obtained from Difco Laboratories. The authenticity of the bacterium was confirmed utilizing standard microbiological techniques of identification. Cultures of the bacterial isolate were inoculated onto fresh plates of solidified chocolate agar and then 24 hours later, a suspension was made from isolated colonies.\n(§2) 10 μl aliquots of the suspension were spread evenly across the surface of solidified control chocolate agar lacking tolan and the surface of solidified chocolate agar containing Tolan-10 at final concentrations ranging from 1 to 125 μg/ml. Thereafter, the agar plates were incubated at 37° C. with or without 5% CO2. All plates were visually examined for growth of the bacterium 24 hours later to determine the concentration of the tri-hydroxylated tolan that inhibits growth by 50% (MIC50) as well as the concentration which inhibits any visible growth (MIC100)."}, "Streptococcus pyogenes": {"system": "Streptococcus pyogenes", "experiment": "Growth inhibition on agar plates", "assay_type": "cell-based", "experimental": "as §1, §2\n(§3) The effect of the same concentrations of Tolan-10 on the growth of Escherichia coli, Staphylococcus aureus, Streptococcus pyogenes, Pseudomonas aeruginosa, Neisseria meningiditis and Candida albicans was also determined. […] The IC50 value of the tri-hydroxylated tolan for this bacterium at 24 hours of treatment was 50 μg/ ml and the IC100 value was 100 μg/ml. In contrast, Tolan 10, at the highest concentration tested, had no effect on the other microorganisms listed."}, "Escherichia coli": {"system": "Escherichia coli", "experiment": "Growth inhibition on agar plates", "assay_type": "cell-based", "experimental": "as §1, §2, §3"}, "Candida albicans": {"system": "Candida albicans", "experiment": "Growth inhibition on agar plates", "assay_type": "cell-based", "experimental": "as §1, §2, §3"}, "Pseudomonas aeruginosa": {"system": "Pseudomonas aeruginosa", "experiment": "Growth inhibition on agar plates", "assay_type": "cell-based", "experimental": "as §1, §2, §3"}, "Neisseria meningiditis": {"system": "Neisseria meningiditis", "experiment": "Growth inhibition on agar plates", "assay_type": "cell-based", "experimental": "as §1, §2, §3"}, "Staphylococcus aureus": {"system": "Staphylococcus aureus", "experiment": "Growth inhibition on agar plates", "assay_type": "cell-based", "experimental": "as §1, §2, §3"}, "HSV-1 [4]": {"system": "HSV-1", "experiment": "Inhibition of HSV-1 replication in vitro, plaque assay (Example 9)", "assay_type": "cell-based", "conditions": "for HSV-1 production: Vero cells, moi 1, up to 72 hours", "experimental": "Tissue culture cells were infected with HSV-1 and incubated in solutions containing Tolan-5, Tolan-10 and Tolan-11. The concentrations used ranged from one-half to three-quarters of the calculated CD50 for the respective tolan at 48 hours of treatment. Specifically, Vero cells were infected with HSV-1 at a multiplicity of infection of one for one hour. At the end of that time, the cultures were rinsed with media and fresh media containing various concentration of the respective tolan were added. Infected control cultures were incubated in media lacking hydroxylated tolan. At 1, 24, 48, and 72 hours after infection, samples were frozen at −70° C. until assayed for new virus production. Virus production was quantified by the plaque assay for each time point of infection. The results, which are expressed as plaque forming units per milliliter (pfu/ml)."}}, "note": "Read-outs that look alike come from different tables or passages of the source."}
{"smiles": "Oc1ccc(C=Cc2ccc(O)cc2)cc1", "note": "[4,4′-dihydroxystilbene, reference compound]", "values": [{"measurement": "effect on virus production", "setting": "HSV-1 [1]", "result": "no effect"}]}
{"smiles": "Oc1ccc(C#Cc2cc(O)cc(O)c2)cc1", "note": "[Tolan-10, 3,4′,5-trihydroxytolan]", "values": [{"measurement": "severity of HSV lesions", "setting": "HSV-1 [2]; 5% solution in DMSO", "result": "significantly reduced the severity of HSV lesions"}, {"measurement": "animals that perished within 11 days after infection", "setting": "HSV-1 [2]; 5%", "result": "none"}, {"measurement": "severity of HSV lesions", "setting": "HSV-1 [2]; 10% solution in DMSO", "result": "significantly reduced the severity of HSV lesions"}, {"measurement": "animals that perished within 11 days after infection", "setting": "HSV-1 [2]; 10%", "result": "none"}, {"measurement": "effectiveness of 10% compared with 5%", "setting": "HSV-1 [2]; particularly days 6–10, not significantly different", "result": "slightly more effective than 5% Tolan-10"}, {"measurement": "toxicity (in words)", "setting": "Vero cells", "result": "very little toxicity"}, {"measurement": "CD50", "setting": "Vero cells; 24 hours", "result": ">200", "unit": "µM"}, {"measurement": "CD50", "setting": "Vero cells; 48 hours", "result": ">200", "unit": "µM"}, {"measurement": "CD50", "setting": "Vero cells; 72 hours", "result": ">200", "unit": "µM"}, {"measurement": "estimated CD50", "setting": "Vero cells; summary of Table 1", "result": "> 200", "unit": "μm"}, {"measurement": "IC100 value", "setting": "[3]; 24 hours of treatment", "result": 100, "unit": "µg/mL"}, {"measurement": "IC100", "setting": "[3]; N. gonorrhoeae, agar, 24 hours", "result": 100, "unit": "mg/L"}, {"measurement": "IC50", "setting": "[3]; N. gonorrhoeae, agar, 24 hours, read-out: IC50", "result": 50, "unit": "µg/mL"}, {"measurement": "IC50", "setting": "[3]; Neisseria, CDC98, 24 hours of treatment, read-out: IC50 value", "result": 50, "unit": "µg/mL"}, {"measurement": "selectivity of growth inhibition", "setting": "[3]; versus the other microorganisms tested", "result": "selectively inhibited"}, {"measurement": "IC100", "setting": "Streptococcus pyogenes; S. pyogenes", "result": ">125", "unit": "mg/L"}, {"measurement": "IC50", "setting": "Streptococcus pyogenes; Streptococcus pyogenes, S. pyogenes", "result": "> 125", "unit": "µg/mL"}, {"measurement": "effect on growth", "setting": "Streptococcus pyogenes; highest concentration tested", "result": "no effect"}, {"measurement": "IC100", "setting": "Escherichia coli; E. coli", "result": ">125", "unit": "mg/L"}, {"measurement": "IC50", "setting": "Escherichia coli; Escherichia coli, E. coli", "result": "> 125", "unit": "µg/mL"}, {"measurement": "effect on growth", "setting": "Escherichia coli; highest concentration tested", "result": "no effect"}, {"measurement": "IC100", "setting": "Candida albicans; C. albicans", "result": ">125", "unit": "mg/L"}, {"measurement": "IC50", "setting": "Candida albicans; Candida albicans, C. albicans", "result": "> 125", "unit": "µg/mL"}, {"measurement": "effect on growth", "setting": "Candida albicans; highest concentration tested", "result": "no effect"}, {"measurement": "IC100", "setting": "Pseudomonas aeruginosa; P. aeruginosa", "result": ">125", "unit": "mg/L"}, {"measurement": "IC50", "setting": "Pseudomonas aeruginosa; Pseudomonas aeruginosa, P. aeruginosa", "result": "> 125", "unit": "µg/mL"}, {"measurement": "effect on growth", "setting": "Pseudomonas aeruginosa; highest concentration tested", "result": "no effect"}, {"measurement": "IC50", "setting": "Neisseria meningiditis; Neisseria, N. meningitides", "result": "> 125", "unit": "µg/mL"}, {"measurement": "effect on growth", "setting": "Neisseria meningiditis; highest concentration tested", "result": "no effect"}, {"measurement": "IC100", "setting": "Staphylococcus aureus; S. aureus", "result": ">125", "unit": "mg/L"}, {"measurement": "IC50", "setting": "Staphylococcus aureus; Staphylococcus aureus, S. aureus", "result": "> 125", "unit": "µg/mL"}, {"measurement": "effect on growth", "setting": "Staphylococcus aureus; highest concentration tested", "result": "no effect"}, {"measurement": "effectiveness against the virus over concentrations", "setting": "HSV-1 [4]; 350 μm to 175 μm", "result": "equally effective against the virus at all concentrations"}, {"measurement": "HSV-1 production", "setting": "HSV-1 [4]", "result": "inhibited HSV-1 production"}]}
{"smiles": "Oc1ccc(C#Cc2ccc(C(F)(F)F)cc2)cc1", "note": "[Tolan-11, 4-hydroxy-4′-trifluoromethyltolan]", "values": [{"measurement": "toxicity (in words)", "setting": "Vero cells", "result": "more toxic than the other hydroxylated tolans"}, {"measurement": "CD50", "setting": "Vero cells; 24 hours", "result": 72.1, "unit": "µM"}, {"measurement": "CD50", "setting": "Vero cells; 48 hours", "result": 48.2, "unit": "µM"}, {"measurement": "CD50", "setting": "Vero cells; 72 hours", "result": 47.1, "unit": "µM"}, {"measurement": "HSV-1 production", "setting": "HSV-1 [4]", "result": "inhibited HSV-1 production"}, {"measurement": "effect on HSV-1 production", "setting": "HSV-1 [4]; concentration of less than 48 μm", "result": "little to no effect"}]}
